Results taken from patent US20180249707A1, “METHOD OF CONTROLLING ALGAE IN A BODY OF WATER” (priority 2013, published 2018).

System: Microcystis aeruginosa
Experiment: 14-day flask exposure of Microcystis aeruginosa to BADA
Assay type: cell-based
Procedure: The experiment was conducted for 14 days and was initiated using 100 mL BG-11 medium contained in 200 mL flasks. […] The experiment was initiated by exposing the algae to 0.2, 0.4, 0.8, 1.0, 1.2, 1.4, 1.8, and 2.0 ppm (mg/L) as BADA, 0.5 Cu/L Cutrine®-Plus. The solution was heated in a water bath and diluted to 70 mg/L using warmed deionized water. Cutrine®-Plus stock solution was made at 50 mg/L using deionized water. Three replicates of each exposure concentration, along with three replicates of an untreated reference were tested. Each sample was maintained at room temperature with 12-hours of light and 12-h dark photoperiod. The chlorophyll a concentrations of Microcystis aeruginosa through the 14 day exposure after exposure to concentrations of BADA and Cutrine®-Plus. The results are shown in TABLES 5, and 6, which show the chlorophyll a concentration and the cell density, respectively.

CCCCCCCCCCCCN(CCCN)CCCN [BADA, N,N-bis-(3-aminopropyl) dodecylamine]
5.7E+05 cells/mL: Cell density of M. aeruginosa cultures (BADA 0.2 ppm, day 0 (initial)) | Cell density of M. aeruginosa cultures (BADA 0.4 ppm, day 0 (initial)) | Cell density of M. aeruginosa cultures (BADA 0.8 ppm, day 0 (initial)) | Cell density of M. aeruginosa cultures (BADA 1.0 ppm, day 0 (initial)) | Cell density of M. aeruginosa cultures (BADA 1.2 ppm, day 0 (initial)) | Cell density of M. aeruginosa cultures (BADA 1.4 ppm, day 0 (initial)) | Cell density of M. aeruginosa cultures (BADA 1.8 ppm, day 0 (initial)) | Cell density of M. aeruginosa cultures (BADA 2.0 ppm, day 0 (initial))
0.05 µg/L: In vivo chlorophyll a concentrations of M. aeruginosa cultures (BADA 1.0 ppm, day 7)
<1E+04 cells/mL: Cell density of M. aeruginosa cultures (BADA 0.2 ppm, day 7) | Cell density of M. aeruginosa cultures (BADA 0.2 ppm, day 14) | Cell density of M. aeruginosa cultures (BADA 0.4 ppm, day 7) | Cell density of M. aeruginosa cultures (BADA 0.4 ppm, day 14) | Cell density of M. aeruginosa cultures (BADA 0.8 ppm, day 7) | Cell density of M. aeruginosa cultures (BADA 0.8 ppm, day 14) | Cell density of M. aeruginosa cultures (BADA 1.0 ppm, day 7) | Cell density of M. aeruginosa cultures (BADA 1.0 ppm, day 14) | Cell density of M. aeruginosa cultures (BADA 1.2 ppm, day 7) | Cell density of M. aeruginosa cultures (BADA 1.2 ppm, day 14) | Cell density of M. aeruginosa cultures (BADA 1.4 ppm, day 7) | Cell density of M. aeruginosa cultures (BADA 1.4 ppm, day 14) | Cell density of M. aeruginosa cultures (BADA 1.8 ppm, day 7) | Cell density of M. aeruginosa cultures (BADA 1.8 ppm, day 14) | Cell density of M. aeruginosa cultures (BADA 2.0 ppm, day 7) | Cell density of M. aeruginosa cultures (BADA 2.0 ppm, day 14)
0.23 µg/L: In vivo chlorophyll a concentrations of M. aeruginosa cultures (BADA 0.4 ppm, day 3)
0.01 µg/L: In vivo chlorophyll a concentrations of M. aeruginosa cultures (BADA 1.4 ppm, day 14) | In vivo chlorophyll a concentrations of M. aeruginosa cultures (BADA 2.0 ppm, day 14)
0.02 µg/L: In vivo chlorophyll a concentrations of M. aeruginosa cultures (BADA 0.2 ppm, day 14) | In vivo chlorophyll a concentrations of M. aeruginosa cultures (BADA 0.4 ppm, day 14) | In vivo chlorophyll a concentrations of M. aeruginosa cultures (BADA 0.8 ppm, day 14) | In vivo chlorophyll a concentrations of M. aeruginosa cultures (BADA 1.0 ppm, day 14) | In vivo chlorophyll a concentrations of M. aeruginosa cultures (BADA 1.2 ppm, day 14) | In vivo chlorophyll a concentrations of M. aeruginosa cultures (BADA 1.8 ppm, day 14)
0.29 µg/L: In vivo chlorophyll a concentrations of M. aeruginosa cultures (BADA 1.2 ppm, day 3) | In vivo chlorophyll a concentrations of M. aeruginosa cultures (BADA 1.4 ppm, day 3)
0.03 µg/L: In vivo chlorophyll a concentrations of M. aeruginosa cultures (BADA 0.4 ppm, day 7) | In vivo chlorophyll a concentrations of M. aeruginosa cultures (BADA 0.8 ppm, day 7) | In vivo chlorophyll a concentrations of M. aeruginosa cultures (BADA 1.8 ppm, day 7) | In vivo chlorophyll a concentrations of M. aeruginosa cultures (BADA 2.0 ppm, day 7)
0.06 µg/L: In vivo chlorophyll a concentrations of M. aeruginosa cultures (BADA 0.2 ppm, day 7)
reduced: Chlorophyll a content of M. aeruginosa compared to untreated control algae (0.2 to 2.0 ppm (mg/L), by 15 days after start, p<0.01)
0.31 µg/L: In vivo chlorophyll a concentrations of M. aeruginosa cultures (BADA 1.0 ppm, day 3)
0.04 µg/L: In vivo chlorophyll a concentrations of M. aeruginosa cultures (BADA 1.2 ppm, day 7) | In vivo chlorophyll a concentrations of M. aeruginosa cultures (BADA 1.4 ppm, day 7)
0.40 µg/L: In vivo chlorophyll a concentrations of M. aeruginosa cultures (BADA 2.0 ppm, day 3)
0.26 µg/L: In vivo chlorophyll a concentrations of M. aeruginosa cultures (BADA 0.8 ppm, day 3)
0.28 µg/L: In vivo chlorophyll a concentrations of M. aeruginosa cultures (BADA 0.2 ppm, day 3)
0.90 µg/L: In vivo chlorophyll a concentrations of M. aeruginosa cultures (BADA 0.2 ppm, day 0 (initial)) | In vivo chlorophyll a concentrations of M. aeruginosa cultures (BADA 0.4 ppm, day 0 (initial)) | In vivo chlorophyll a concentrations of M. aeruginosa cultures (BADA 0.8 ppm, day 0 (initial)) | In vivo chlorophyll a concentrations of M. aeruginosa cultures (BADA 1.0 ppm, day 0 (initial)) | In vivo chlorophyll a concentrations of M. aeruginosa cultures (BADA 1.2 ppm, day 0 (initial)) | In vivo chlorophyll a concentrations of M. aeruginosa cultures (BADA 1.4 ppm, day 0 (initial)) | In vivo chlorophyll a concentrations of M. aeruginosa cultures (BADA 1.8 ppm, day 0 (initial)) | In vivo chlorophyll a concentrations of M. aeruginosa cultures (BADA 2.0 ppm, day 0 (initial))
0.32 µg/L: In vivo chlorophyll a concentrations of M. aeruginosa cultures (BADA 1.8 ppm, day 3)
